Assay results as given in ChEMBL document CHEMBL5223175, “Discovery of novel 2-oximino-2-indolylacetamide derivatives as potent anticancer agents capable of inducing cell autophagy and ferroptosis” (Bioorg Med Chem, 2023).
Activity calls are given as the source filed them. The rule behind the calls is not given here.

Assays:
FaDu = assay: Antiproliferative activity against human FaDu cells assessed as reduction in cell viability incubated for 72 hrs by CCK-8 assay; assay type: functional, cell-based
[1] = Antiproliferative activity against human NP69SV40T cells assessed as reduction in cell viability incubated for 72 hrs by CCK-8 assay; assay type: toxicity, cell-based
5-8F [2] = assay: Antiproliferative activity against human 5-8F cells assessed as reduction in Ki67 expression at 10 to 30 uM by Western blotting analysis; assay type: functional, cell-based; settings: dose 10-30 µM
CAL-27 = assay: Antiproliferative activity against human CAL-27 cells assessed as reduction in Ki67 expression at 10 to 30 uM by Western blotting analysis; assay type: functional, cell-based; settings: dose 10-30 µM
5-8F [3] = assay: Induction of apoptosis in human 5-8F cells assessed as appearance of rounded cells incubated for 48 hrs by microscopic analysis; assay type: functional, cell-based; settings: dose 10-30 µM
5-8F [4] = assay: Induction of apoptosis in human 5-8F cells assessed as appearance of floating cells incubated for 48 hrs by microscopic analysis; assay type: functional, cell-based; settings: dose 10-30 µM
5-8F [5] = assay: Induction of apoptosis in human 5-8F cells assessed as increase in dead cells incubated for 48 hrs by microscopic analysis; assay type: functional, cell-based; settings: dose 10-30 µM
5-8F [6] = assay: Induction of apoptosis in human 5-8F cells at 30 uM incubated for 48 hrs by Annexin V-FITC and PI staining based flow cytometry analysis; assay type: functional
5-8F [7] = assay: Induction of apoptosis in human 5-8F cells assessed as upregulation of cleaved PARP expression at 10 to 30 uM incubated for 48 hrs by Western blotting analysis; assay type: functional, cell-based; settings: dose 10-30 µM
5-8F [8] = assay: Induction of autophagy in human 5-8F cells assessed as appearance of autophagic vacuoles at 30 uM incubated for 48 hrs by TEM analysis; assay type: functional, cell-based
5-8F [9] = assay: Induction of autophagy in human 5-8F cells assessed as decrease in p62 expression at 10 to 30 uM by Western blotting analysis; assay type: functional, cell-based; settings: dose 10-30 µM
5-8F [10] = assay: Induction of ferroptosis in human 5-8F cells assessed as change in mitochondrial morphology at 30 uM incubated for 48 hrs by TEM analysis; assay type: functional, cell-based
5-8F [11] = assay: Induction of ferroptosis in human 5-8F cells assessed as appearance of thickened cristae at 30 uM incubated for 48 hrs by TEM analysis; assay type: functional, cell-based
5-8F [12] = assay: Induction of ferroptosis in human 5-8F cells assessed as appearance of widened gabs between cristae at 30 uM incubated for 48 hrs by TEM analysis; assay type: functional, cell-based
5-8F [13] = assay: Induction of ferroptosis in human 5-8F cells assessed as appearance of vacuoles at 30 uM incubated for 48 hrs by TEM analysis; assay type: functional, cell-based
5-8F [14] = assay: Induction of ferroptosis in human 5-8F cells assessed as decrease in GPx4 expression at 10 to 30 uM incubated for 48 hrs by Western blotting analysis; assay type: functional, cell-based; settings: dose 10-30 µM
5-8F [15] = assay: Induction of ROS generation in human 5-8F cells at 10 to 30 uM after 48 hrs by DCFH-DA staining based flow cytometry analysis; assay type: functional, cell-based; settings: dose 10-30 µM
5-8F [16] = assay: Induction of lipid peroxidation in human 5-8F cells at 30 uM after 48 hrs by BODIPY C11 staining based fluorescence microscopy analysis; assay type: functional, cell-based
5-8F [17] = assay: Induction of lipid peroxidation in human 5-8F cells at 30 uM after 48 hrs by flow cytometry analysis; assay type: functional, cell-based
5-8F [18] = assay: Upregulation of p38 MAPK phosphorylation in human 5-8F cells at 10 to 30 uM by Western blotting analysis; assay type: functional, cell-based; settings: dose 10-30 µM
5-8F [19] = assay: Antitumor activity against human 5-8F cells xenografted in BALB/c mouse assessed as decrease in tumor weight at 10 to 20 mg/kg, ip administered daily; assay type: functional, organism-based; settings: dose 10-20 mg/kg
5-8F [20] = assay: Antitumor activity against human 5-8F cells xenografted in BALB/c mouse assessed as decrease in Ki67 expression at 10 to 20 mg/kg, ip administered daily; assay type: functional, organism-based; settings: dose 10-20 mg/kg

Cn1cc(/C(=N\O)C(=O)Nc2ccc(Cl)cc2)c2ccccc21
IC50 (FaDu): 22.2 µM | IC50 at 72 h [1]: 70.9 µM | Activity (5-8F [2]): Active | Activity (CAL-27): Active | Activity (5-8F [3]): Dose-Dependent Effect | Activity (5-8F [4]): Dose-Dependent Effect | Activity (5-8F [5]): Dose-Dependent Effect | Activity (5-8F [6]): 29.1% | Activity (5-8F [7]): Active | Activity (5-8F [8]): Active | Activity (5-8F [9]): Active | Activity (5-8F [10]): Active | Activity (5-8F [11]): Active | Activity (5-8F [12]): Active | Activity (5-8F [13]): Active | Activity (5-8F [14]): Active | Activity (5-8F [15]): Active | Activity (5-8F [16]): Active | Activity (5-8F [17]): Active | Activity (5-8F [18]): Active | Activity (5-8F [19]): Active | Activity (5-8F [20]): Active
